The values below are quoted from earlier work in patent publication US10195257B2 (Qantu Therapeutics, Inc., priority 2013, dated 2019).

The subject of data set [1] is T cells. The settings on record: in vivo.
In data set [2] the test system is Aβ. The settings on record: without any adjuvant, administered intra-nasally.
The test system of data set [3] is OVA-specific CTLs. Particulars: mice immunized with OVA plus adjuvant.

As to `O=Cc1c(O)cccc1OCc1ccc(C(=O)O)cc1` [tucaresol, 4-(2-formyl-3-hydroxyphenoxymethylbenzoic acid)], the “type of immunity favored” value in data set [1] was “favors a Th1-biased immunity with a Th1-type cytokine profile and concomitant CTL production”.
Regarding “Aβ40: main Aβ peptide that contains amino acid residues from 1 to 40”, the “immune response and Aβ plaques” value in data set [2] was “Th2 immune response and reduced levels of Aβ plaques”.
Take QS-21: in data set [3], the “immune response type and CTL production” value was “Th1 immune response with the concomitant production of OVA-specific CTLs”.
